Measurements: US10934298B2, “Substituted pyrazolo[1,5-a]pyrimidines for the treatment of medical disorders” (BIAL—BioTech Investments, Inc., priority 2016, dated 2021)

Target: T1, glucocerebrosidase (Gcase) (Homo sapiens, UniProt P04062)
T1 construct: micellar solution containing 10 nM GCase and 100 nM saposin C
T1 sequence (P04062 40-536): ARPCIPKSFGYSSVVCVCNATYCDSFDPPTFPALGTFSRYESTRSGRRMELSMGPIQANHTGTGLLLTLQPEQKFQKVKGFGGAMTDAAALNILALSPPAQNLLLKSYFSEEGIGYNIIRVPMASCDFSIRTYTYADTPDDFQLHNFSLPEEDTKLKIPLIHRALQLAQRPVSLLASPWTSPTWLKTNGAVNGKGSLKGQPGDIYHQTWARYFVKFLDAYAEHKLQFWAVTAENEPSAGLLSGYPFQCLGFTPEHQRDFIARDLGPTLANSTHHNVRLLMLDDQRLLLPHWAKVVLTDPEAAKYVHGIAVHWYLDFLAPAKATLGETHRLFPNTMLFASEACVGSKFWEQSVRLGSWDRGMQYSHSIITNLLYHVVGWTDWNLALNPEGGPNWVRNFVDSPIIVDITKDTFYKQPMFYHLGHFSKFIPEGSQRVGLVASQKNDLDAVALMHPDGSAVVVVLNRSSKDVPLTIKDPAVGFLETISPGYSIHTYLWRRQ
Test: Glucocerebrosidase (Gcase) activation assay with 4-methylumbelliferyl-beta-D-glucopyranoside substrate, saposin C and phosphatidylserine/triton micelles, fluorescence readout
Format: biochemical
How it was run: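 10 nM GCase with 100 nM saposin C pre-incubated 30 min with compound in pH 4.7 phosphate/citrate PS/triton micelles, then mixed 1:1 with 2 mM 4-methylumbelliferyl-β-glucoside micellar substrate (stock level). Run 15 min at room temperature, stopped at pH 12.5; fluorescence 365/440 nm. Screened at 1.0 and 0.1 μM; 8-point curves from 5 μM.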

Structure (SMILES) | Percent Gcase Activation, 0.1 μM Test Compound (test compound at 0.1 μM) | Percent Gcase Activation, 1 μM Test Compound (test compound at 1.0 μM) | also measured
Cc1cc(N2CC(C)(C)OC2=O)nc2c(C(=O)N[C@H](C3CC3)C(F)(F)F)cnn12 [III-358] | – | – | Percent Gcase Activation, 0.1 μM Test Compound (0.1 μM test compound): * (less than 10% Gcase activation); Percent Gcase Activation, 1 μM Test Compound (1 μM test compound): ++ (Gcase activation in the range of 30% up to 60%)
Cc1cc(-c2cncc(C#N)c2)nc2c(C(=O)N[C@@H](C3CC3)C(F)(F)F)cnn12 [III-364] | – | – | Percent Gcase Activation, 0.1 μM Test Compound (0.1 μM test compound): ** (Gcase activation in the range of 10% up to 20%); Percent Gcase Activation, 1 μM Test Compound (1 μM test compound): +++ (Gcase activation greater than 60%)
Cc1cc(-c2cccnc2)nc2c(C(=O)N[C@H]3CC[C@H](OCC(C)C)CC3)cnn12 [III-39] | – | – | Percent Gcase Activation, 0.1 μM Test Compound (0.1 μM test compound, Table 3A): ** (Gcase activation in the range of 10% up to 20%); Percent Gcase Activation, 1 μM Test Compound (1 μM test compound, Table 3A): +++ (Gcase activation greater than 60%)
COc1ccc(F)c(-c2cc(C)n3ncc(C(=O)N[C@@H](C)C(F)(F)F)c3n2)c1 [III-98] | *** (greater than 20% Gcase activation) | +++ (Gcase activation greater than 60%) | –
Cc1cc(-c2cccc(Oc3ncccn3)c2)nc2c(C(=O)NC(C3CC3)C(F)(F)F)cnn12 (centres unmarked) [III-103] | * (less than 10% Gcase activation) | +++ (Gcase activation greater than 60%) | –
Cc1cc(-c2sccc2C#N)nc2c(C(=O)N[C@@H](C)C3CC3)cnn12 [III-301] | – | – | Percent Gcase Activation, 0.1 μM Test Compound (0.1 μM test compound): *** (greater than 20% Gcase activation); Percent Gcase Activation, 1 μM Test Compound (1 μM test compound): +++ (Gcase activation greater than 60%)
Cc1cc(-c2cccc(F)n2)nc2c(C(=O)N[C@H](C)C3CC3)cnn12 [III-135] | ** (Gcase activation in the range of 10% up to 20%) | +++ (Gcase activation greater than 60%) | –
COc1ccc(-c2cc(C)n3ncc(C(=O)NC(C)C(F)(F)F)c3n2)cn1 (centres unmarked) [III-271] | *** (greater than 20% Gcase activation) | +++ (Gcase activation greater than 60%) | –
COc1ccncc1-c1cc(C)n2ncc(C(=O)NC(C3CC3)C(F)(F)F)c2n1 (centres unmarked) [III-263] | * (less than 10% Gcase activation) | ++ (Gcase activation in the range of 30% up to 60%) | –
Cc1cc(N2CCCC(F)(F)C2)nc2c(C(=O)NC(C3CC3)C(F)(F)F)cnn12 (centres unmarked) [III-66] | – | – | Percent Gcase Activation, 0.1 μM Test Compound (0.1 μM test compound, Table 3A): *** (greater than 20% Gcase activation); Percent Gcase Activation, 1 μM Test Compound (1 μM test compound, Table 3A): +++ (Gcase activation greater than 60%)
Cc1cc(-c2nc3ccccc3[nH]2)nc2c(C(=O)NC(C3CC3)C(F)(F)F)cnn12 (centres unmarked) [III-311] | – | – | Percent Gcase Activation, 0.1 μM Test Compound (0.1 μM test compound): * (less than 10% Gcase activation); Percent Gcase Activation, 1 μM Test Compound (1 μM test compound): ++ (Gcase activation in the range of 30% up to 60%)
Cc1cc(-c2noc(C(C)C)n2)nc2c(C(=O)N[C@@H](C3CC3)C(F)(F)F)cnn12 [III-394] | – | – | Percent Gcase Activation, 0.1 μM Test Compound (0.1 μM test compound): *** (greater than 20% Gcase activation); Percent Gcase Activation, 1 μM Test Compound (1 μM test compound): +++ (Gcase activation greater than 60%)
Cc1sncc1-c1cc(C)n2ncc(C(=O)N[C@H](C3CC3)C(F)(F)F)c2n1 [III-387] | – | – | Percent Gcase Activation, 0.1 μM Test Compound (0.1 μM test compound): *** (greater than 20% Gcase activation); Percent Gcase Activation, 1 μM Test Compound (1 μM test compound): +++ (Gcase activation greater than 60%)
Cc1nscc1-c1cc(C)n2ncc(C(=O)N[C@H](C3CC3)C(F)(F)F)c2n1 [III-389] | – | – | Percent Gcase Activation, 0.1 μM Test Compound (0.1 μM test compound): *** (greater than 20% Gcase activation); Percent Gcase Activation, 1 μM Test Compound (1 μM test compound): +++ (Gcase activation greater than 60%)
Cc1cc(-c2cccnc2)nc2c(C(=O)NC(C3CC3)C(F)(F)F)cnn12 (centres unmarked) [III-35] | – | – | Percent Gcase Activation, 0.1 μM Test Compound (0.1 μM test compound, Table 3A): ** (Gcase activation in the range of 10% up to 20%); Percent Gcase Activation, 1 μM Test Compound (1 μM test compound, Table 3A): +++ (Gcase activation greater than 60%)
Cc1cc(-c2cccc(F)c2)nc2c(C(=O)NC(C)(C)C(F)(F)F)cnn12 [III-80] | – | – | Percent Gcase Activation, 0.1 μM Test Compound (0.1 μM test compound, Table 3A): ** (Gcase activation in the range of 10% up to 20%); Percent Gcase Activation, 1 μM Test Compound (1 μM test compound, Table 3A): +++ (Gcase activation greater than 60%)
C#CC(C)(C)NC(=O)c1cnn2c(C)cc(-c3cccc(F)c3)nc12 [III-75] | – | – | Percent Gcase Activation, 0.1 μM Test Compound (0.1 μM test compound, Table 3A): *** (greater than 20% Gcase activation); Percent Gcase Activation, 1 μM Test Compound (1 μM test compound, Table 3A): +++ (Gcase activation greater than 60%)
Cc1cc(-c2ccc(F)cc2)n2ncc(C(=O)N[C@@H](C)C3CC3)c2n1 [III-8] | – | – | Percent Gcase Activation, 0.1 μM Test Compound (0.1 μM test compound, Table 3A): * (less than 10% Gcase activation); Percent Gcase Activation, 1 μM Test Compound (1 μM test compound, Table 3A): + (less than 30% Gcase activation)
Cc1cc(-c2ccc3ocnc3c2)nc2c(C(=O)N[C@@H](C3CC3)C(F)(F)F)cnn12 [III-110] | *** (greater than 20% Gcase activation) | +++ (Gcase activation greater than 60%) | –
Cc1cc(N2CCC(F)(F)C2)nc2c(C(=O)NC(C3CC3)C(F)(F)F)cnn12 (centres unmarked) [III-67] | – | – | Percent Gcase Activation, 0.1 μM Test Compound (0.1 μM test compound, Table 3A): *** (greater than 20% Gcase activation); Percent Gcase Activation, 1 μM Test Compound (1 μM test compound, Table 3A): +++ (Gcase activation greater than 60%)
CCC(NC(=O)c1cnn2c(C)cc(-c3cccnc3)nc12)C(F)(F)F (centres unmarked) [III-42] | – | – | Percent Gcase Activation, 0.1 μM Test Compound (0.1 μM test compound, Table 3A): * (less than 10% Gcase activation); Percent Gcase Activation, 1 μM Test Compound (1 μM test compound, Table 3A): +++ (Gcase activation greater than 60%)
COc1ccc(-c2cc(C)n3ncc(C(=O)N[C@H](C)C(F)(F)F)c3n2)cn1 [III-272] | ** (Gcase activation in the range of 10% up to 20%) | +++ (Gcase activation greater than 60%) | –
Cc1ncc(F)cc1-c1cc(C)n2ncc(C(=O)N[C@H](C3CC3)C(F)(F)F)c2n1 [III-378] | – | – | Percent Gcase Activation, 0.1 μM Test Compound (0.1 μM test compound): ** (Gcase activation in the range of 10% up to 20%); Percent Gcase Activation, 1 μM Test Compound (1 μM test compound): +++ (Gcase activation greater than 60%)
Cc1cc(N2CCCC(F)(F)C2)nc2c(C(=O)N[C@@H](C3CC3)C(F)(F)F)cnn12 [III-95] | *** (greater than 20% Gcase activation) | +++ (Gcase activation greater than 60%) | –
Cc1cc(-c2cccc(F)n2)nc2c(C(=O)N[C@@H](C)C3CC3)cnn12 [III-134] | ** (Gcase activation in the range of 10% up to 20%) | +++ (Gcase activation greater than 60%) | –
Cc1cc(C)n2ncc(C(=O)N[C@H]3CC[C@H](OCC(C)C)CC3)c2n1 [III-191] | * (less than 10% Gcase activation) | +++ (Gcase activation greater than 60%) | –
Cc1cc(-c2cccnc2C#N)nc2c(C(=O)N[C@H](C3CC3)C(F)(F)F)cnn12 [III-365] | – | – | Percent Gcase Activation, 0.1 μM Test Compound (0.1 μM test compound): ** (Gcase activation in the range of 10% up to 20%); Percent Gcase Activation, 1 μM Test Compound (1 μM test compound): +++ (Gcase activation greater than 60%)
Cc1cc(-c2cc(Cl)ccn2)nc2c(C(=O)NC(C3CC3)C(F)(F)F)cnn12 (centres unmarked) [III-207] | *** (greater than 20% Gcase activation) | +++ (Gcase activation greater than 60%) | –
C#CC(NC(=O)c1cnn2c(C)cc(-c3cccc(OC)c3)nc12)C(F)(F)F (centres unmarked) [III-96] | *** (greater than 20% Gcase activation) | +++ (Gcase activation greater than 60%) | –

Second part, led by results:

Percent Gcase Activation, 0.1 μM Test Compound (test compound at 0.1 μM) | Percent Gcase Activation, 1 μM Test Compound (test compound at 1.0 μM) | Structure (SMILES) | also measured
*** (greater than 20% Gcase activation) | +++ (Gcase activation greater than 60%) | Cc1cc(-c2ccc3ocnc3c2)nc2c(C(=O)NC(C)C(F)(F)F)cnn12 (centres unmarked) [III-169] | –
*** (greater than 20% Gcase activation) | +++ (Gcase activation greater than 60%) | Cc1cc(-c2cccc3ncsc23)nc2c(C(=O)N[C@@H](C)C3CC3)cnn12 [III-222] | –
*** (greater than 20% Gcase activation) | +++ (Gcase activation greater than 60%) | Cc1cc(-c2ccns2)nc2c(C(=O)N[C@@H](C)C3CC3)cnn12 [III-197] | –
*** (greater than 20% Gcase activation) | +++ (Gcase activation greater than 60%) | Cc1cc(-c2ccc(F)cc2C#N)nc2c(C(=O)NC(C)C(F)(F)F)cnn12 (centres unmarked) [III-154] | –
*** (greater than 20% Gcase activation) | +++ (Gcase activation greater than 60%) | Cc1cc(-c2cncc(F)c2)nc2c(C(=O)N[C@@H](C3CC3)C(F)(F)F)cnn12 [III-127] | –
*** (greater than 20% Gcase activation) | +++ (Gcase activation greater than 60%) | Cc1cc(-c2cccnc2F)nc2c(C(=O)N[C@@H](C3CC3)C(F)(F)F)cnn12 [III-115] | –
*** (greater than 20% Gcase activation) | +++ (Gcase activation greater than 60%) | Cc1cc(-c2cccc3ncsc23)nc2c(C(=O)NC(C)C(F)(F)F)cnn12 (centres unmarked) [III-221] | –
* (less than 10% Gcase activation) | + (less than 30% Gcase activation) | COc1c(C#N)cccc1-c1cc(C)n2ncc(C(=O)N[C@@H](C)C3CC3)c2n1 [III-143] | –
